± gives the expanded uncertainty stated by the source.
Experiments:
[1] = 303.15 K; 101 kPa; Liquid
[2] = xn = mol fraction of the nth substance listed; settings: 303.15 K, 101 kPa, Liquid

Question: For `CC(C)CC(C)(C)C` [2,2,4-trimethylpentane], which mass density [1] is on record?
Answer: 683.74 ± 0.43 kg/m3

Question: With `CC(C)CC(C)(C)C` [2,2,4-trimethylpentane] + CC(C)OC(C)C as the compound, how does the mass density ([2]; x2 = 0) read?
Answer: 683.74 ± 0.43 kg/m3

Question: Which mass density ([2]; x2 = 0) does the source give for `CC(C)CC(C)(C)C` [2,2,4-trimethylpentane] + CCCO here?
Answer: 683.74 ± 0.43 kg/m3

Question: And the mass density ([2]; x2 = 0.0484)?
Answer: 685.75 ± 0.43 kg/m3

Question: What about the mass density ([2]; x2 = 0.0993) of the same compound?
Answer: 688.26 ± 0.43 kg/m3

Question: What about the mass density ([2]; x2 = 0.2038) of the same compound?
Answer: 694.24 ± 0.42 kg/m3

Question: What about the mass density ([2]; x2 = 0.2983) of the same compound?
Answer: 700.64 ± 0.42 kg/m3

Question: What about the mass density ([2]; x2 = 0.4) of the same compound?
Answer: 708.63 ± 0.41 kg/m3

Question: What about the mass density ([2]; x2 = 0.5007) of the same compound?
Answer: 717.82 ± 0.41 kg/m3

Question: And the mass density ([2]; x2 = 0.5989)?
Answer: 728.33 ± 0.4 kg/m3

Question: And the mass density ([2]; x2 = 0.6995)?
Answer: 741.12 ± 0.39 kg/m3

Question: What about the mass density ([2]; x2 = 0.7998) of the same compound?
Answer: 756.21 ± 0.38 kg/m3

Question: And the mass density ([2]; x2 = 0.8984)?
Answer: 774.29 ± 0.36 kg/m3

Question: And the mass density ([2]; x2 = 0.9502)?
Answer: 785.01 ± 0.35 kg/m3

Question: Which mass density [1] does the source give for `CC(C)OC(C)C` [diisopropyl ether] here?
Answer: 713.51 ± 0.76 kg/m3

Question: With `CC(C)OC(C)C` [diisopropyl ether] + CC(C)CC(C)(C)C as the compound, how does the mass density ([2]; x1 = 0.0504) read?
Answer: 684.87 ± 0.43 kg/m3

Question: And the mass density ([2]; x1 = 0.102)?
Answer: 686.03 ± 0.43 kg/m3

Question: What about the mass density ([2]; x1 = 0.1985) of the same compound?
Answer: 688.29 ± 0.43 kg/m3

Question: And the mass density ([2]; x1 = 0.301)?
Answer: 690.84 ± 0.43 kg/m3

Question: And the mass density ([2]; x1 = 0.3996)?
Answer: 693.42 ± 0.43 kg/m3

Question: And the mass density ([2]; x1 = 0.5002)?
Answer: 696.27 ± 0.42 kg/m3

Question: And the mass density ([2]; x1 = 0.6002)?
Answer: 699.34 ± 0.42 kg/m3

Question: And the mass density ([2]; x1 = 0.7009)?
Answer: 702.6 ± 0.42 kg/m3

Question: What about the mass density ([2]; x1 = 0.7849) of the same compound?
Answer: 705.55 ± 0.41 kg/m3

Question: And the mass density ([2]; x1 = 0.9013)?
Answer: 709.78 ± 0.41 kg/m3

Question: And the mass density ([2]; x1 = 0.9512)?
Answer: 711.68 ± 0.41 kg/m3

Question: And the mass density ([2]; x1 = 1)?
Answer: 713.51 ± 0.41 kg/m3

Question: Which mass density ([2]; x1 = 0.0504) does the source give for `CC(C)OC(C)C` [diisopropyl ether] + CCCO here?
Answer: 790.59 ± 0.61 kg/m3

Question: What about the mass density ([2]; x1 = 0.0991) of the same compound?
Answer: 785.96 ± 0.62 kg/m3

Question: What about the mass density ([2]; x1 = 0.2001) of the same compound?
Answer: 775.66 ± 0.64 kg/m3

Question: And the mass density ([2]; x1 = 0.2994)?
Answer: 766.52 ± 0.66 kg/m3

Question: What about the mass density ([2]; x1 = 0.4) of the same compound?
Answer: 757.67 ± 0.68 kg/m3

Question: What about the mass density ([2]; x1 = 0.5018) of the same compound?
Answer: 749.3 ± 0.69 kg/m3

Question: And the mass density ([2]; x1 = 0.6006)?
Answer: 741.73 ± 0.71 kg/m3

Question: What about the mass density ([2]; x1 = 0.6995) of the same compound?
Answer: 734.54 ± 0.72 kg/m3

Question: And the mass density ([2]; x1 = 0.7994)?
Answer: 727.46 ± 0.73 kg/m3

Question: What about the mass density ([2]; x1 = 0.8981) of the same compound?
Answer: 720.72 ± 0.75 kg/m3

Question: What about the mass density ([2]; x1 = 0.9498) of the same compound?
Answer: 717.2 ± 0.75 kg/m3

Question: What about the mass density ([2]; x1 = 1) of the same compound?
Answer: 713.51 ± 0.76 kg/m3

Question: With `CCCO` [propan-1-ol] as the compound, how does the mass density [1] read?
Answer: 796.55 ± 0.6 kg/m3

Question: With `CCCO` [propan-1-ol] + CC(C)CC(C)(C)C as the compound, how does the mass density ([2]; x1 = 1) read?
Answer: 796.55 ± 0.34 kg/m3

Question: For `CCCO` [propan-1-ol] + CC(C)OC(C)C, which mass density ([2]; x2 = 0) is on record?
Answer: 796.55 ± 0.6 kg/m3

From the NIST ThermoML archive (doi:10.1021/je700460w)
